# Laboratory results reported in patent US20240360154A1, “AROYL SUBSTITUTED TRICYCLIC COMPOUND, PREPARATION METHOD THEREFOR AND USE THEREOF” (GENFLEET THERAPEUTICS (SHANGHAI) INC., priority 2020, published 2024).
# Legend:
# BTK = BTK (Homo sapiens (Human), UniProt Q06187); test: BTK enzyme experiment (ADP-Glo kinase assay); type: biochemical; conditions: 10 nM BTK, ATP 125 μM, Poly(Glu4, Tyr1), 90 minutes at 20° C.; read-out: BTK(WT) IC50
# How it was run: (§1)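 Wild-type or C481S BTK, added as 2× solution at 10 nM, preincubated 10 min with 3-fold compound dilutions in 50 mM HEPES pH 7.5, 10 mM MgCl2, 2 mM DTT, 0.0015% Brij-35. ADP-Glo luminescence norm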
# BTK (C481S) = BTK (C481S) (Homo sapiens (Human), UniProt Q06187, C481S); test: BTK C481S enzyme experiment (ADP-Glo kinase assay); type: biochemical; conditions: 10 nM BTK C481S, ATP 125 μM, Poly(Glu4, Tyr1), 90 minutes at 20° C.
# How it was run: as §1
# p-BTK (WT) = p-BTK (WT) (Homo sapiens (Human), UniProt Q06187); test: p-BTK cell experiment, HEK293 transfected with WT-BTK plasmid (P-BTK Y223 sandwich ELISA); type: cell-based; conditions: HEK293 cells, compound cultured for two hours
# Procedure: (§2) Day 1: HEK293 cells (ADDEXBIO, T0011001) at logarithmic growth phase were taken, digested with enzyme EDTA, collected and counted, and 2E6 cells were inoculated in a 10 cm culture dish and cultured overnight. Day 2: A mixed solution containing 6 μg of WT-BTK/C481S-BTK plasmid and 18 μL of FuGENE HD transfection reagent was prepared by using 1000 μL of Opti-MEM. After standing at room temperature for 10 minutes, the mixed solution was slowly added to the culture dish with a pipettor and cultured overnight. Day 3: The culture dish was taken out, and the cells were digested with enzyme EDTA, collected and counted, and 1E4 cells were inoculated in a 96-well cell culture plate and cultured overnight. A 3.16-fold gradient concentration stock solution of 1000× compound was prepared using DMSO, and placed at room temperature. Day 4: A prepared 1000× compound stock solution was taken, and diluted 200-fold to 5× compound stock solution with culture medium. 5× compound stock solution was added to each cell culture well with a final concentration of 1× compound stock solution and a DMSO content of 0.1%. DMSO was used as an experimental control. After the compound was added and cultured for two hours, the residual culture medium was removed. 100 μL of cell lysis buffer was added to each well, stood on ice for 30 minutes, and ultrasonically lysed with ice water for 5 minutes. After diluting the cell lysate in proportion, 80 μL of the mixture was transfer to an ELISA plate, and 80 μL of cell lysis buffer was added to the blank well. After incubating in an incubator at 37° C. for 2 hours, the plate was taken and the antibody incubation and color development termination operation were completed according to the instructions of Pathscan P-BTK (Y223) Sandwich ELISA Kit (Cell Signaling #23843 CA), and finally the OD value was read. The inhibition rate of the compound (%)=(ODcontrol−ODcompound)/(ODcontrol−ODblank)×100% was calculated. The compound gradient dilution concentration and the corresponding cell proliferation inhibition rate were fit by using Prism 8 four-parameter method, and IC50 value was calculated.
# p-BTK (C481S) = p-BTK (C481S) (Homo sapiens (Human), UniProt Q06187, C481S); test: p-BTK cell experiment, HEK293 transfected with C481S-BTK plasmid (P-BTK Y223 sandwich ELISA); type: cell-based; conditions: HEK293 cells, compound cultured for two hours
# Procedure: as §2
# TMD-8 cells = test: TMD-8 proliferation inhibition experiment; type: cell-based; conditions: human diffuse large B lymphoma cells, three days incubation
# How it was run: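 Log-phase cells seeded in 384-well plates (600 TMD-8 in RPMI 1640, 2000 OCI-LY10 in IMDM, both 10% FBS), then exposed one day later to 3-fold compound dilutions at 0.25% DMSO for three days. ADP-Glo luminescence read; inhibition versus DMSO and medium-only blank, IC50 by four-parameter fit.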
# Chain of p-BTK (WT) (Q06187 whole entry): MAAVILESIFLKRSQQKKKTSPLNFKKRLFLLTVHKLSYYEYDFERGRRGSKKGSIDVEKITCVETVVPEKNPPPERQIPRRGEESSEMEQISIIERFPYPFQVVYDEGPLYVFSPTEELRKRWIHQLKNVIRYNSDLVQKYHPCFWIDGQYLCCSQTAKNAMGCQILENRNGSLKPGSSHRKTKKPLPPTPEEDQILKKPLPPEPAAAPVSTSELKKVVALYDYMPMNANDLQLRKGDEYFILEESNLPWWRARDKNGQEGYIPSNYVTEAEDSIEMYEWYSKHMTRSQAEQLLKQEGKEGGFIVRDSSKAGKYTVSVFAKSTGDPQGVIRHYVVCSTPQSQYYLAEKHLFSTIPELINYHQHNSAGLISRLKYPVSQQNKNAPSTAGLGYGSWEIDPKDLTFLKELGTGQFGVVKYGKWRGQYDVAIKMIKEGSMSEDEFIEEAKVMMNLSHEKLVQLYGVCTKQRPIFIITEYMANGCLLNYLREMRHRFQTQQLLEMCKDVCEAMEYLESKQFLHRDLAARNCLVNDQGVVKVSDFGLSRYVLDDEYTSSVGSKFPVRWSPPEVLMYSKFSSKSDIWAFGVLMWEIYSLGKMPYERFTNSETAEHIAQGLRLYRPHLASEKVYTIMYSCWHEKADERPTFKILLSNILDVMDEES
# Chain of BTK (Q06187 whole entry): as above
# Chain of BTK (C481S) (Q06187 whole entry C481S): as the sequence (Q06187 whole entry) above, with C481S counted along it
# Chain of p-BTK (C481S) (Q06187 whole entry C481S): as the sequence (Q06187 whole entry) above, with C481S counted along it
IC50 (BTK) [nM],IC50 (BTK (C481S)) [nM],IC50 (p-BTK (WT)) [nM],IC50 (p-BTK (C481S)) [nM],Structure (SMILES),"IC50 (TMD-8 cells; Homo sapiens, TMD8, 72 h) [nM]",IC50 (TMD-8 cells) [nM]
27.8,12,35.8,36.6,CN1CCC2(C1)Nc1c(cnc3[nH]cc(C(=O)c4ccc(Oc5ccccc5)cc4F)c13)NC2=O (stereo not drawn) [Z5],,
6.7,3.8,29.6,38.1,"[2H]C([2H])([2H])OC[C@]1(C)Nc2c(cnc3[nH]cc(C(=O)c4ccc(Oc5ccccc5)cc4Cl)c23)NC1=O (single isomer, unassigned) [Z66-1]",94.8,
7.6,5.1,31.5,27.6,O=C(c1ccc(Oc2ccccc2)cc1Cl)c1c[nH]c2ncc3c(c12)NC1(CCOCC1)C(=O)N3 [Z14],,57
10.2,17.4,68.3,119,COCC[C@]1(C)Nc2c(cnc3[nH]cc(C(=O)c4ccc(Oc5ccccc5)cc4Cl)c23)NC1=O [Z78-2],,254
7.6,9.1,17.3,36.6,"O=C(c1ccc(Oc2ccccc2)cc1Cl)c1c[nH]c2ncc3c(c12)N[C@]1(CCCOC1)C(=O)N3 (single isomer, unassigned) [Z16-1]",,42.8
11.8,15.5,16.5,36.1,"COC[C@]1(C)Nc2c(cnc3[nH]cc(C(=O)c4ccc(Oc5nccc(C)c5F)cc4Cl)c23)NC1=O [Z132, 9-(2-chloro-4-((3-fluoro-4-methylpyridin-2-yl)oxy)benzoyl)-2-(methoxymethyl)-2-methyl-4,7-dihydro-1H-pyrrolo[3′,2′:5,6]pyrido[3,4-b]pyrazin-3(2H)-one]",133,
4.5,6.6,3.98,7.26,"COC[C@]1(C)Nc2c(cnc3[nH]cc(C(=O)c4ccc(Oc5c(F)cccc5OC)cc4Cl)c23)NC1=O [Z168, (S)-9-(2-chloro-4-(2-fluoro-6-methoxyphenoxy)benzoyl)-2-(methoxymethyl)-2-methyl-1,2,4,7-tetrahydro-3H-pyrrolo[3′,2′:5,6]pyrido[3,4-b]pyrazin-3-one]",22.4,
4.2,5.8,39.5,39,"O=C(c1ccc(Oc2ccccc2)cc1Cl)c1c[nH]c2ncc3c(c12)N[C@]1(CC[C@H](O)C1)C(=O)N3 (single isomer, unassigned) [Z24-b]",,80.8
16.8,21.5,16.7,27.5,"[2H]C([2H])([2H])OC[C@]1(C)Nc2c(cnc3[nH]cc(C(=O)c4ccc(Oc5ccccc5F)cc4Cl)c23)NC1=O [Z160, (S)-9-(2-chloro-4-(2-fluorophenoxy)benzoyl)-2-((methoxy-d3)methyl)-2-methyl-1,2,4,7-tetrahydro-3H-pyrrolo[3′,2′:5,6]pyrido[3,4-b]pyrazin-3-one]",108,
3.4,3.1,16.9,15.3,"O=C(c1ccc(Oc2ccccc2)cc1Cl)c1c[nH]c2ncc3c(c12)N[C@@]1(CC[C@H](O)C1)C(=O)N3 (single isomer, unassigned) [Z24-d]",,52
3,1.3,5.2,1.6,"O=C(c1ccccc1Cl)c1c[nH]c2ncc3c(c12)NC1(CCOCC1)C(=O)N3 [Z197, 9′-(2-chlorobenzoyl)-2,3,4′,5,6,7′-hexahydrospiro[pyran-4,2′-pyrrolo[3′,2′:5,6]pyrido[3,4-b]pyrazin]-3′(1′H)-one]",,
4.3,2,2.5,1,"CC1(C)Nc2c(cnc3[nH]cc(C(=O)c4ccccc4Cl)c23)NC1=O [Z120, 9-(2-chlorobenzoyl)-2,2-dimethyl-1,2,4,7-tetrahydro-3H-pyrrolo[3′,2′:5,6]pyrido[3,4-b]pyrazin-3-one]",,
3.9,3.9,2.8,1.4,"COC[C@]1(C)Nc2c(cnc3[nH]cc(C(=O)c4ccc(F)c(F)c4Cl)c23)NC1=O [Z195, (S)-9-(2-chloro-3,4-difluorobenzoyl)-2-(methoxymethyl)-2-methyl-1,2,4,7-tetrahydro-3H-pyrrolo[3′,2′:5,6]pyrido[3,4-b]pyrazin-3-one]",,
17.1,10.3,375,340,CC(=O)N1CCC2(C1)Nc1c(cnc3[nH]cc(C(=O)c4ccc(Oc5ccccc5)cc4Cl)c13)NC2=O (stereo not drawn) [Z4],,
7.9,6.1,,,"O=C(c1ccc(Oc2ccccc2)cc1Cl)c1c[nH]c2ncc3c(c12)N[C@@]1(CC[C@H](CO)OC1)C(=O)N3 (single isomer, unassigned) [Z41-2b]",,101
14.9,11.4,,,"COC[C@]1(C)Nc2c(cnc3[nH]cc(C(=O)c4ccc(Oc5cc(Cl)cc(C)n5)cc4Cl)c23)NC1=O [Z134, (S)-9-(2-chloro-4-((4-chloro-6-methylpyridin-2-yl)oxy)benzoyl)-2-(methoxymethyl)-2-methyl-1,2,4,7-tetrahydro-3H-pyrrolo[3′,2′:5,6]pyrido[3,4-b]pyrazin-3-one]",256,
6.5,13.3,65.8,90,"COCC1(C)Nc2c(cnc3[nH]cc(C(=O)c4ccc(Oc5cc(C)ccn5)cc4Cl)c23)NC1=O (stereo not drawn) [Z64, 9-(2-chloro-4-((4-methylpyridin-2-yl)oxy)benzoyl)-2-(methoxymethyl)-2-methyl-1,2,4,7-tetrahydro-3H-pyrrolo[3′,2′:5,6]pyrido[3,4-b]pyrazin-3-one]",,
40,37.2,,,"Cc1ccnc(Oc2ccc(C(=O)c3c[nH]c4ncc5c(c34)NC3(CCOCC3)C(=O)N5C)c(Cl)c2)c1 [Z72, 9′-(2-chloro-4-((4-methylpyridin-2-yl)oxy)benzoyl)-4′-methyl-2,3,4′,5,6,7′-hexahydrospiro[pyran-4,2′-pyrrolo[3′,2′:5,6]pyrido[3,4-b]pyrazin]-3′(1′H)-one]",404,
34,59.4,,,"COC[C@]1(C)Nc2c(cnc3[nH]cc(C(=O)c4ccc(Oc5cccc(OC)c5)cc4Cl)c23)NC1=O [Z166, (S)-9-(2-chloro-4-(3-methoxyphenoxy)benzoyl)-2-(methoxymethyl)-2-methyl-1,2,4,7-tetrahydro-3H-pyrrolo[3′,2′:5,6]pyrido[3,4-b]pyrazin-3-one]",245,
15.4,7.6,,,"COC1CCC2(C1)Nc1c(cnc3[nH]cc(C(=O)c4ccc(Oc5ccccc5)cc4Cl)c13)NC2=O (single isomer, unassigned) [Z25-3a, 9′-(2-chloro-4-phenoxybenzoyl)-3-methoxy-4′,7′-dihydrospiro[cyclopentane-1,2′-pyrrolo[3′,2′:5,6]pyrido[3,4-b]pyrazin]-3′(1′H)-one]",,102
64.7,27.2,,,"O=C(c1ccc(Oc2ccccc2)cc1Cl)c1c[nH]c2ncc3c(c12)N[C@]1(CCOC1)C(=O)N3 (single isomer, unassigned) [Z1-2]",,232
32,19.8,,,"COC1CCC2(C1)Nc1c(cnc3[nH]cc(C(=O)c4ccc(Oc5ccccc5)cc4Cl)c13)NC2=O (single isomer, unassigned) [Z25-1, 9′-(2-chloro-4-phenoxybenzoyl)-3-methoxy-4′,7′-dihydrospiro[cyclopentane-1,2′-pyrrolo[3′,2′:5,6]pyrido[3,4-b]pyrazin]-3′(1′H)-one]",101,

Structure (SMILES),IC50 (BTK) [nM],IC50 (BTK (C481S)) [nM],IC50 (p-BTK (WT)) [nM],IC50 (p-BTK (C481S)) [nM],"IC50 (TMD-8 cells; Homo sapiens, TMD8, 72 h) [nM]",IC50 (TMD-8 cells) [nM]
CN1CCC2(C1)Nc1c(cnc3[nH]cc(C(=O)c4ccc(Oc5ccccc5)cc4Cl)c13)N(C)C2=O (stereo not drawn) [Z8],73.6,27.9,,,,469
